Assays:
[1] = Binding in plasma from human (equilibrium dialysis); type: in vitro ADME; conditions: human, plasma, fraction unbound; equilibrium dialysis; read-out: human fu,plasma
Experimental: Binding in plasma from rat and human.
Determination of compounds’ fraction unbound (f u) in plasma from rat and human was conducted in vitro via equilibrium dialysis using HTDialysis membrane plates. Dialysis membranes (four paired strips per HTD assay) were hydrated as described by the manufacturer and inserted into the HTD plate, which was assembled and prepared for sample addition by the dispensing of blank buffer (DPBS, 100 µL/well) into the ‘top half’ of each membrane-split well. Each compound was diluted into plasma from each species (5 µM final concentration), which was aliquoted in triplicate to the ‘bottom half’ of the prepared HTD plate wells. The HTD plate was sealed and incubated for 6 hours at 37 °C. Following incubation, each well (both top and bottom halves) were transferred (20 µL) to the corresponding wells of a 96-shallow-well (V-bottom) plate. The daughter plates were then matrix-matched (buffer side wells received equal volume of plasma, and plasma side wells received equal volume of buffer), and extraction solution (120 µL; acetonitrile containing 50 nM carbamazepine as IS) was added to all wells of both daughter plates to precipitate protein and extract test article. The plates were then sealed and centrifuged (3500 rcf) for 10 minutes at ambient temperature. Supernatant (60 µL) from each well of the daughter plates was then transferred to the corresponding wells of new daughter plates (96-shallow-well, V bottom) containing water (Milli-Q, 60 µL/well), and the plates were sealed in preparation for LC-MS/MS analysis (see below). fu was calculated as (analyte to IS MS peak area ratio from Trans-buffer side) / (analyte to IS MS peak area ratio from Cis-plasma side). Mean values for each species were calculated from 3 replicates.

CYP 1A2 = target: T1, CYP 1A2 (Homo sapiens, UniProt P05177); test: P450 inhibition in pooled human liver microsomes; type: in vitro ADME; conditions: pooled HLM, NADPH, CYP-specific probe substrates
T1 construct: from tissue; host or cells: pooled human liver microsomes (according to the earlier reading)

[2] = test system: amphetamine-induced hyperlocomotion in rats; test: Rat amphetamine-induced hyperlocomotion (AHL); type: in vivo; conditions: for mean reversal of AHL: listed as VU6016235
Experimental: Rat Amphetamine-Induced Hyperlocomotion (AHL) Protocol
Male Harlan Sprague Dawley rats with a mean body weight of 240 g (range 221-264 g) were tested in SmartFrame Open Field locomotor activity test chambers to automatically record locomotor activity. All rats were habituated in locomotor activity enclosures for 30 min, followed by pretreatment by oral gavage for an additional 30 min with either vehicle or a dose of VU6016235 or the comparator M 4 PAM VU0467154. Next, rats were injected subcutaneously with vehicle or a dose of 0.75 mg/kg amphetamine and then monitored for an additional 60 min. Changes in locomotor activity were recorded for a total of 120 min. Locomotor data were expressed as the number of photobeam breaks/5 min intervals across the 120-min test session or as the total ambulation, calculated as sum of photobeam beam breaks from the time of amphetamine administration (60 min) until the end of the study (120 min). Time course data were analyzed by two-way ANOVA with main effects of treatment and time; changes in total ambulation were analyzed by one-way ANOVA followed by Dunnett’s post hoc test (GraphPad Prism 7 [GraphPad Software, San Diego, CA]). For all tests, α ≤ 0.05 was considered to represent statistical significance.
Finally, percent reversal data were calculated in Microsoft Excel using the following formula: Percent Reversal = 100 - {[(total ambulation in individual animal from t = 60 to t = 120) / (mean total ambulation […]
from t=60 to t=120 in the VAMP group)] * 100}. Mean percent reversal ± S.E.M. was calculated for each dose group using GraphPad Prism 7.
At the end of this behavioral study, each rat was euthanized, then decapitated, and the plasma and brain tissues were collected for the evaluation of exposure levels of VU6016235-05 or VU0467154-9A by pharmacokinetic analysis. […]

Endothelin ETA = target: T2, Endothelin ETA (Homo sapiens, UniProt P25101); test: Lead Profiling Screen – Eurofins Panlabs; type: binding; conditions: read-out: % inh at 10 μM
T2 construct: Eurofins Panlabs (contract screen)

Estrogen ERα = target: T3, Estrogen ERα (Homo sapiens, UniProt P03372); test: Lead Profiling Screen – Eurofins Panlabs; type: binding; conditions: read-out: % inh at 10 μM
T3 construct: Eurofins Panlabs (contract screen)

Histamine H2 = Histamine H2 (Homo sapiens, UniProt P25021); test: Lead Profiling Screen – Eurofins Panlabs; type: binding; conditions: read-out: % inh at 10 μM
Imidazoline I2, Central = test: Lead Profiling Screen – Eurofins Panlabs; type: binding, rat
[3] = target: Nicotinic Acetylcholine α1, Bungarotoxin (Homo sapiens, UniProt P02708+P07510+Q07001); test: Lead Profiling Screen – Eurofins Panlabs; type: binding; conditions: read-out: % inh at 10 μM
Opiate μ (OP3, MOP) = Opiate μ (OP3, MOP) (Homo sapiens, UniProt P35372); test: Lead Profiling Screen – Eurofins Panlabs; type: binding; conditions: read-out: % inh at 10 μM
[4] = target: Transporter, Dopamine (DAT) (Homo sapiens, UniProt Q01959); test: Lead Profiling Screen – Eurofins Panlabs; type: binding; conditions: read-out: % inh at 10 μM
Sequence of Transporter, Dopamine (DAT) (Q01959 whole entry): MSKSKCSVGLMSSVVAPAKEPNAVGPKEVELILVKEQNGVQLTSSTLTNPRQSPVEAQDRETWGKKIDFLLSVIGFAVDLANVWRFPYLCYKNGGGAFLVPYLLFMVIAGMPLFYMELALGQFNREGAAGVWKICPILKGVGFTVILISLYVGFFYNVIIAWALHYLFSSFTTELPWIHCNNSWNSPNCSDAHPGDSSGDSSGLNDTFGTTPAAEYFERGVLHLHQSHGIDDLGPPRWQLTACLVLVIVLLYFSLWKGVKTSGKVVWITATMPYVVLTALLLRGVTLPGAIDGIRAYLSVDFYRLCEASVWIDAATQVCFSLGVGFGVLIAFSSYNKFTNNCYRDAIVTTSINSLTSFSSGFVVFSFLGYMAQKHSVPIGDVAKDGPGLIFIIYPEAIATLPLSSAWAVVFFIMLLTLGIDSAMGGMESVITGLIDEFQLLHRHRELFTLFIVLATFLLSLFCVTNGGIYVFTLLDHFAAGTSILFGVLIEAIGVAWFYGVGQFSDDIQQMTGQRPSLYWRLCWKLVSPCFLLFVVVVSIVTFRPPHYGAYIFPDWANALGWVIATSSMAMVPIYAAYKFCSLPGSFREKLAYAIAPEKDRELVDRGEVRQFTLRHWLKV

Sequence of Nicotinic Acetylcholine α1, Bungarotoxin (P02708 21-457): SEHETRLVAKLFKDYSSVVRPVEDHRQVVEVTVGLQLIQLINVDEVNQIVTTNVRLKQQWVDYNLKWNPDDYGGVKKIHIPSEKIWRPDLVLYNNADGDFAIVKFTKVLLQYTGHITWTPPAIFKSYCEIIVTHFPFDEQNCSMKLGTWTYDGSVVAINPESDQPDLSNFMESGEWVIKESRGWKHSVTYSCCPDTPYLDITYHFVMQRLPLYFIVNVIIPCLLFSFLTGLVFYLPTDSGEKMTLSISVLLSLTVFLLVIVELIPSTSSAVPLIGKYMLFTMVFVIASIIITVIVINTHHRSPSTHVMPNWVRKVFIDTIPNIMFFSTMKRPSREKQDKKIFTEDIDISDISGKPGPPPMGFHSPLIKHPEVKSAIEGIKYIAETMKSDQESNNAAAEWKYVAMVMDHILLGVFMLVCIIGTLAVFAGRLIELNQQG
Sequence of Nicotinic Acetylcholine α1, Bungarotoxin (Q07001 22-517): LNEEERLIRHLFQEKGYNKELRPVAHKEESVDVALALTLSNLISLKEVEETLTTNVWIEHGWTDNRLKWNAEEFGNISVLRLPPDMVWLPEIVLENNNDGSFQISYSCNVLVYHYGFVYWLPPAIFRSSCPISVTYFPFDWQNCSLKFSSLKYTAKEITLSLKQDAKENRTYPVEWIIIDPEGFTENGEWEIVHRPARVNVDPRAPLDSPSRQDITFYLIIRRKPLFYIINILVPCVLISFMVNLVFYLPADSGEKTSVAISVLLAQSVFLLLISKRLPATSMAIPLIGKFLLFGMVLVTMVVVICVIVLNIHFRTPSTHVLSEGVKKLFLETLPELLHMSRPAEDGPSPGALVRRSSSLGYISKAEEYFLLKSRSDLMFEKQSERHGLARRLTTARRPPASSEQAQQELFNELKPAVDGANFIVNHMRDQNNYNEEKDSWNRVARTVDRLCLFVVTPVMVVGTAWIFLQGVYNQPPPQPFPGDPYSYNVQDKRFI
Sequence of Nicotinic Acetylcholine α1, Bungarotoxin (P07510 23-517): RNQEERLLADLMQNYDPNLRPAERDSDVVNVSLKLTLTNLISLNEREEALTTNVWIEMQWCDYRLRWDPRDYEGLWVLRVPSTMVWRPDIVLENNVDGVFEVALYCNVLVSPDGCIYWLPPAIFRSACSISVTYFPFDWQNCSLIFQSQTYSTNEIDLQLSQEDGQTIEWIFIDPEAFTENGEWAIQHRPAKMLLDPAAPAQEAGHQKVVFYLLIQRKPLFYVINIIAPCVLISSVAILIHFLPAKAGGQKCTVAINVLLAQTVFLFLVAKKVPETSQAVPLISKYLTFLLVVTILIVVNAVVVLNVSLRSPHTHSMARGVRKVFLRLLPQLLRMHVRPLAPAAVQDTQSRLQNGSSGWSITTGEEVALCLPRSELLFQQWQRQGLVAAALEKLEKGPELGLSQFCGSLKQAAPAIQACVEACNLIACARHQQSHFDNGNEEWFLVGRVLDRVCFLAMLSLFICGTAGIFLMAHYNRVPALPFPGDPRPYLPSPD
Sequence of Nicotinic Acetylcholine α1, Bungarotoxin (P11230 24-501, further chain): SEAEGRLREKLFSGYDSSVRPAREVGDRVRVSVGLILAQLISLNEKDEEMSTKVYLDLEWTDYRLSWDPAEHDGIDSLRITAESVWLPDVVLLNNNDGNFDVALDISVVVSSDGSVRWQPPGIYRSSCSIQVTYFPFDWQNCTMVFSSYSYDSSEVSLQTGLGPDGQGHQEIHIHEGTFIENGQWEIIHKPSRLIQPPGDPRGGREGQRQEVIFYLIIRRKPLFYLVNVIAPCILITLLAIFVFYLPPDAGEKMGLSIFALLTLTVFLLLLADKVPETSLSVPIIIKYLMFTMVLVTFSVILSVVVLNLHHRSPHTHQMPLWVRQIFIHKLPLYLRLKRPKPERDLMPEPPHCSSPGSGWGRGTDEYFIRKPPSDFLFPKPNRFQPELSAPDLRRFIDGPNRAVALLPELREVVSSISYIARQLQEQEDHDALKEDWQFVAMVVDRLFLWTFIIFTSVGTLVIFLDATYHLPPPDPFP
Sequence of Opiate μ (OP3, MOP) (P35372 whole entry): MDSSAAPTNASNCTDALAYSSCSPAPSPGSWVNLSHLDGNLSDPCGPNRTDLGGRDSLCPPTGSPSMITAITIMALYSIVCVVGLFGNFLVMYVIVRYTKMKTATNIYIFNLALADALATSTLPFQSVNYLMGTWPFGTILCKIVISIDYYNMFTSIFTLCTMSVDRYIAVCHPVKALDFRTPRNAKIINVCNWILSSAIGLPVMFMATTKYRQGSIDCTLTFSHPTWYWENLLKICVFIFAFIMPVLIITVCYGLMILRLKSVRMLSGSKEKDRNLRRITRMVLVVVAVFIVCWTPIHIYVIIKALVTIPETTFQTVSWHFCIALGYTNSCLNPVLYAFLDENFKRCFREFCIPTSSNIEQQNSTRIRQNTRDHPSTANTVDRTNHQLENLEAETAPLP
T1 sequence (P05177 whole entry): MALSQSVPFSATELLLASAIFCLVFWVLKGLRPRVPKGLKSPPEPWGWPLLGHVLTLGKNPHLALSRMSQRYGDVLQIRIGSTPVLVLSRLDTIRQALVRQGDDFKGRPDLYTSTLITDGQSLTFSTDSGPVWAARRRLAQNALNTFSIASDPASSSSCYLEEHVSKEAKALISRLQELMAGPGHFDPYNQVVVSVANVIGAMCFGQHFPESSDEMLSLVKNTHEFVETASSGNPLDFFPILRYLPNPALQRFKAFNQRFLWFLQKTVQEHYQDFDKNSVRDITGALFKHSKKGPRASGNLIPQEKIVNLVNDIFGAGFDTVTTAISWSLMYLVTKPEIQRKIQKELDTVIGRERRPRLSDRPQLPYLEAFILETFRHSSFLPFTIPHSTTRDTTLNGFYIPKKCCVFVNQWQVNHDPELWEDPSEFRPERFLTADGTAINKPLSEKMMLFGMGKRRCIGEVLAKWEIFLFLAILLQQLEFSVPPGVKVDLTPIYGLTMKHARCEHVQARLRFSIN
Sequence of Histamine H2 (P25021 whole entry): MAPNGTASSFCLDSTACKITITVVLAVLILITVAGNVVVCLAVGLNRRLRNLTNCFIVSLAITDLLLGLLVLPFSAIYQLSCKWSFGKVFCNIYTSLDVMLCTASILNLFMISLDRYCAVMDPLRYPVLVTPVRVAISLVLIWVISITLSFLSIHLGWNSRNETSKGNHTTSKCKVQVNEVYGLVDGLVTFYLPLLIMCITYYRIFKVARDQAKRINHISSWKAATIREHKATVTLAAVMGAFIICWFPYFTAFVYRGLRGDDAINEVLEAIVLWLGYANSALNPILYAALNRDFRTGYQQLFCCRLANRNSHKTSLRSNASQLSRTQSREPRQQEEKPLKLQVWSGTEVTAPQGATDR
T2 sequence (P25101 21-427): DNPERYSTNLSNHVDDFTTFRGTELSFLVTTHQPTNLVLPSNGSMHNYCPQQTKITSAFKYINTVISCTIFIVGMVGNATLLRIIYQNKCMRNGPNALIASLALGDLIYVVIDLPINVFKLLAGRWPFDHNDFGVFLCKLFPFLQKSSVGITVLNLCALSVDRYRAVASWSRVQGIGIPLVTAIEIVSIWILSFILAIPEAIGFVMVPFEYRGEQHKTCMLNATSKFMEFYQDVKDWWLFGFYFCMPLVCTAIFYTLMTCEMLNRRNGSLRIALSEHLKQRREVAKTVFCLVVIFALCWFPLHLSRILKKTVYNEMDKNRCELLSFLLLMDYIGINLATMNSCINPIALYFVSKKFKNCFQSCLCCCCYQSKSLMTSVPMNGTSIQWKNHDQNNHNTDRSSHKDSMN
T3 sequence (P03372 whole entry): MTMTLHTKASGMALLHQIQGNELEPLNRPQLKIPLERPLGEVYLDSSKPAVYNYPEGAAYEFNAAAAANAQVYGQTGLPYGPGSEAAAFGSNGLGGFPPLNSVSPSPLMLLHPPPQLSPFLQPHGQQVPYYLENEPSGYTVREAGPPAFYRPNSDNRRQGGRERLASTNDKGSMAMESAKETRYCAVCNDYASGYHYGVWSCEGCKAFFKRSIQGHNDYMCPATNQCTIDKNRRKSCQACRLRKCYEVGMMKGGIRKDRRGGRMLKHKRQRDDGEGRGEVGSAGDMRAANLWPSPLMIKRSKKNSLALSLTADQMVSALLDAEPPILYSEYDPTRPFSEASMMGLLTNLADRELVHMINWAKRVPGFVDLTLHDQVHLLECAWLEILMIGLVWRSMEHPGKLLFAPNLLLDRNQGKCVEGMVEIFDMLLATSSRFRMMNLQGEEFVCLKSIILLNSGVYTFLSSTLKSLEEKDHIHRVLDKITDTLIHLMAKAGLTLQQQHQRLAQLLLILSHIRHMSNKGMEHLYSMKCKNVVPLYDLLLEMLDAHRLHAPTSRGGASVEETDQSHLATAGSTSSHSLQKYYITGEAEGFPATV

Which fraction unbound at 6 h, 5 µM [1] does the source give for Cc1nc(C)c2c(n1)sc1c(NCc3ccc(C(C)(C)O)cc3)nccc12 [22g] here?
Its fraction unbound at 6 h, 5 µM is 0.014.

And the IC50 (CYP 1A2)?
Its IC50 is 23 µM.

And the “mean % reversal of AHL” value ([2]; 0.56 mg/kg p.o. + amphetamine 0.75 mg/kg s.c.)?
Its value is 12.8 ± 3.9%.

And the “mean reversal of AHL” value ([2]; 3 mg/kg p.o. + amphetamine 0.75 mg/kg s.c.)?
The value was 41.4%.

And the “mean reversal of AHL” value ([2]; 10 mg/kg p.o. + amphetamine 0.75 mg/kg s.c.)?
The value was 54.2%.

What about the “MED, reversal of AHL” value ([2]; oral administration) of the same compound?
The value was 1 mg/kg.

And the inhibition at 10 µM (Endothelin ETA)?
The inhibition at 10 µM was -2%.

What about the inhibition at 10 µM (Estrogen ERα) of the same compound?
The inhibition at 10 µM was -8%.

What about the inhibition at 10 µM (Histamine H2) of the same compound?
Its inhibition at 10 µM is -17%.

And the “% inh at 10 μM” value (Imidazoline I2, Central)?
The value was -1%.

And the inhibition at 10 µM [3]?
Its inhibition at 10 µM is -8%.

And the inhibition at 10 µM (Opiate μ (OP3, MOP))?
The inhibition at 10 µM was 7%.

What about the inhibition at 10 µM [4] of the same compound?
Its inhibition at 10 µM is 25%.

— article PMC11487561 (ACS Chemical Neuroscience, 2024)
